Experimental data: article PMC12040169 (PLOS Biology, 2025)

Test: in vitro
Settings: human, hela cells, % viability

SMILES | viability at 28.5 h, 10 µM [%]
CS(=O)(=O)c1ccc(-n2nnnc2CNC2(CO)CCCC2)cc1 [CBK304134] | 91.8
CCOc1cc(NC2CCN(C(=O)C3(CC(C)C)CCC3)CC2)ncn1 [CBK304136] | 105
CCOc1cc(NC2CCN(C(=O)C3CCCC3)C2)ncn1 (stereo not shown) [CBK304137] | 106
CN(Cc1nc2c(s1)CCCC2)C(=O)c1ccc2[nH]cnc2c1 [CBK304138] | 88.4
COc1ccc(C(C)NC2CCN(c3ccccn3)CC2)cc1F (stereo not shown) [CBK304146] | 86.8
OC(CSc1ncnc2sc3c(c12)CCC3)Cn1cccn1 (stereo not shown) [CBK304149] | 72.3
CC(=O)Nc1ccc(NC(=O)NCC2CCCO2)c(C(F)(F)F)c1 (stereo not shown) [CBK304150] | 92.8
COCc1nc(CN2CCNC(=O)C2c2ccccc2C(F)(F)F)no1 (stereo not shown) [CBK304157] | 87.2
Cc1ncn(Cc2nc(-c3ccsc3)no2)c(=O)c1C [CBK304158] | 113
Cc1cnn(C2CCN(C(=O)NC(C)C3OCCc4sccc43)C2)c1 (stereo not shown) [CBK304159] | 96.8
COCc1ccsc1C(=O)Nc1ncn(CC(=O)N2CCCCCC2)n1 [CBK304160] | 94.9
Cc1nc(-c2cccnc2)[nH]c(=O)c1CCC(=O)N1CCNC(C)C1 (stereo not shown) [CBK304163] | 102
CC1(O)CCN(Cc2nnnn2-c2ccc(S(C)(=O)=O)cc2)CC1 [CBK304166] | 99.2
CCCCNc1cc(N(C)Cc2cnn(C)c2)nc(N)n1 [CBK304167] | 62.6
Cc1noc(C)c1S(=O)(=O)N1CCOCC1c1cccc(F)c1 (stereo not shown) [CBK304171] | 109
CCOC(=O)C(NC(=O)c1cc[nH]c(=O)c1)c1cccc(C)c1C (stereo not shown) [CBK304174] | 97.1
COCCc1noc(CC2CCN(c3ccc(Cl)c(C#N)n3)CC2)n1 [CBK304177] | 97.5
COCCc1noc(CC2CCN(c3ncncc3C#N)CC2)n1 [CBK304178] | 90.5
CCn1c(C)nnc1CN(CC1CCCO1)C1CCCC1 (stereo not shown) [CBK304181] | 96.4

SMILES | viability at 28.5 h, 10 µM [%]
Cc1cnn(C2CCN(C(=O)CC3OCCc4ccccc43)CC2)c1 (stereo not shown) [CBK304186] | 93.6
Cn1cc(CC2CCN(Cc3ccc(Oc4cnccn4)cc3)C2)cn1 (stereo not shown) [CBK304188] | 108
CCn1c(CN2CCC(c3cc(O)nc(N)n3)C2)nc2c(F)cccc21 (stereo not shown) [CBK304189] | 87.5
CC(C)C(CNCc1cncnc1)c1ccnn1C (stereo not shown) [CBK304190] | 79.9
CCOC(=O)c1cn(CC2CC2)c2cc(F)c(F)cc2c1=O [CBK304195] | 98.1
NCC1CCCN1C(=O)c1ccc(Oc2cccc(Br)c2)nc1 (stereo not shown) [CBK304200] | 95.5
c1ccc(Cc2csc(C3CN4CCCC4CO3)n2)cc1 (stereo not shown) [CBK304202] | 90.2
COCCc1noc(CC2CCN(c3nc(C#N)c(Cl)s3)CC2)n1 [CBK304205] | 102
O=C(c1cnn(-c2cccc(Cl)c2)c1)N1CCOCC1CC(F)F (stereo not shown) [CBK304207] | 95.5
CCOC(=O)C1CSCCN1C(=O)c1ccc(-c2cnco2)cc1 (stereo not shown) [CBK304208] | 84.9
CCOC(=O)c1cn(CC#N)c2cc(F)c(F)cc2c1=O [CBK304211] | 98.3
Cc1nn(C)c(C(=O)Nc2sc3c(c2C#N)CCC(C)C3)c1Br (stereo not shown) [CBK304212] | 104
CC1CCCN(CCCNS(=O)(=O)c2ccc(N3CCCC3=O)cc2)C1 (stereo not shown) [CBK304213] | 90
CCCC(=O)Nc1ccc(C(=O)N2CCN(CC)CC2)cc1 [CBK304218] | 88.6
Cc1nc2cc(C(=O)N3CCCCC3CN3CCOCC3)ccc2[nH]1 (stereo not shown) [CBK304219] | 109
CC1CCN(CCCNS(=O)(=O)c2ccc(N3CCCC3=O)cc2)CC1 [CBK304220] | 95.9
Cc1nn(CC(=O)N2CCN(C)CC2)c(=O)c2ccccc12 [CBK304221] | 93.3
CCn1cc(C2CN(S(=O)(=O)c3cccc(COC)c3)CCO2)cn1 (stereo not shown) [CBK304222] | 93.7
